This is an account of results in US5041441A, “Method of chemotherapy using 1-phenyl-2-decanoylamino-3-morpholino-1-propanol” (The Regents of the University of Michigan, priority 1988, dated 1991).

Data set [1] concerns Ehrlich ascites tumor cells (EATC). Kind of data set: Antitumor activity in mice inoculated i.p. with Ehrlich ascites tumor cells. The conditions noted are these: for 50-day cure (mice) / Solid Tumors at 50 days (mice): 8 mice; for Acute, initial toxicity observation: C18 (stearoyl) homolog, 0.15 mmol/kg on day 1; for Normal at 60 days / Solid tumors at 60 days: L-threo isomer; for Weight Change after 10 days: mouse, in vivo. It counts as in vivo. How it is done: Male mice of the ICR (Swiss Hsd) strain from Harlan--Sprague Dawley (Indianapolis, Ind.) were injected intraperitoneal with saline containing 2×10^6 Ehrlich ascites tumor cells (EATC) on day 0. […] Treatment began 24 hours later with intraperitoneal injections of saline or inhibitor, either as the acetate salt or as the hydrochloride salt. The inhibitor was dissolved in 40° C. saline and injected at 10 μl/g body weight. In the case of drugs that were difficult to dissolve, e.g. the hydrochlorides, a non-ionic, low toxicity detergent was included to emulsify the drug, making it suitable for injection. Two cages of mice were assigned to each control or experimental group and fed standard lab chow. In almost all cases, the mice were injected daily for a total of 10 doses.
The 1-tailed Student t-test for unpaired samples was used for statistical analysis.
The experimental procedure set forth above was again followed with homologs of PDMP made from fatty acids of 10 to 18 carbon atom length. The compounds were not resolved into D- and L-forms but the threo stereomers were used as the hydrochlorides. All samples were emulsified in Myrj 52 (15 mg/kg).

The test system of data set [2] is Ehrlich ascites cells. Kind of data set: Growth of Ehrlich ascites cells in vivo (volume of packed cells). To be noted: for Volume of packed cells / Volume of packed cells, % of controls: treatment begun 3 days after EATC inoculation, 5 injections, killed 1 day later, 100 mg/kg.
Description: A suspension of GlcCer was injected into one group of 10 mice inoculated 1 day earlier with EATC as before. Injectable suspensions of GlcCer and galactosylceramide (GalCer) were prepared by mechanical grinding in saline (10 mg/ml) and injected at a dosage of 100 mg/kg. In one experiment, the mice were killed 1 day after the last of eight daily injections and the ascites cells were flushed out of the abdomen with buffered saline and washed.
Treatments were begun 3 days after EATC inoculation. Only 5 injections were given and the mice were killed 1 day later.
Data set [3] relates to Ehrlich ascites cells. To be noted: mice bearing Ehrlich ascites carcinoma cells, injection of glucosylceramide (background); cited from earlier work.
In data set [4] the target is T1, glucosyltransferase (EATC enzyme) (Mus musculus, UniProt O88693).
T1 construct: Microsomes from EATC (0.50 mg protein) required 20 μM PDMP to reduce the glucosyltransferase activity in half; endogenous in cells; host or cells: Ehrlich ascites tumor cells (EATC), microsomes
T1 sequence (O88693 1-394): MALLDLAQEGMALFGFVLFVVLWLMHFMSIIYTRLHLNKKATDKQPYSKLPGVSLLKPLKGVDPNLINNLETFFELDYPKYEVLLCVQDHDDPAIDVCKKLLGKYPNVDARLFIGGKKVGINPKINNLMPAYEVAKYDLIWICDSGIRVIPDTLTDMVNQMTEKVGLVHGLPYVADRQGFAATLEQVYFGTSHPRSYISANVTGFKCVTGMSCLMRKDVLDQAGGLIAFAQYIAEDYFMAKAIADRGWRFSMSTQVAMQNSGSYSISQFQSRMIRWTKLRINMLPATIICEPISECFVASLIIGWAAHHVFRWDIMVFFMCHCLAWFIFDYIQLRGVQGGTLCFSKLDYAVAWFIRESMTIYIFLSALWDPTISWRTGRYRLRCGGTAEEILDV
In words: Glucosyltransferase assay, microsomes from EATC. The data set is classed as biochemical. How it is done: Evidence that D-threo-PDMP acts to inhibit GlcCer biosynthesis was provided as follows from assay of glucosyltransferase. Microsomes as source of enzyme were prepared by highspeed centrifugation and stored at -70° C. before use. The incubations were at 37° C. for 30 minutes with microsomes, ATP, liposomal octanoyl sphingosine, UDP-[^3 H]glu, Mg^2+, and dithioerythritol. Microsomes from EATC (0.50 mg protein) required 20 μM PDMP to reduce the glucosyltransferase activity in half. The microsomes from normal liver (72 μg protein) required 5 μM D-threo-PDMP. While the EATC enzyme seems to be less sensitive to the inhibitor, the intraperitoneal concentration of inhibitor is initially very high.

[5] abbreviates: DL-threo hydrochloride in Myrj 52 emulsion, C16 0.15 mmol/kg, six injections.
Setting [6] is: DL-threo hydrochloride in Myrj 52 emulsion, 0.3 mmol/kg, ten daily injections.
Where [7] appears, read: DL-threo hydrochloride in Myrj 52 emulsion, C18 0.15 mmol/kg on day 1 and 0.075 mmol/kg the remaining 9 days.

Marks after values point to notes of the source that are not given here.

With `CCCCCCCCCCCCCCCC(=O)N[C@H](CN1CCOCC1)[C@H](O)c1ccccc1` (relative stereo) [compound 16], in data set [1] (setting [5]), the “Body Weight Increase at the 10-day point” value was -1.1 g, the “Survival after 10 days” value is 5/8, the “50-day cure (mice)” value is 3 and the “Solid Tumors at 50 days (mice)” value amounted to 1. For the same compound, in data set [1] (palmitoyl homolog, daily injections in Myrj 52), the Toxicity observation result is “too toxic to be used more than six times”.

Consider galactosylceramide [GalCer], for which the “Stimulation of EATC growth” value in the data set on Ehrlich ascites cells [2] (Experiment 7, 100 mg/kg) is reported as “no stimulation of EATC growth”. In the data set on Ehrlich ascites cells [2], the “Volume of packed cells” value is reported as 2.29 ± 1.21 ml/mouse and the “Volume of packed cells, % of controls” value is 84 % of controls.

For `CCCCCCCCCCCC(=O)N[C@H](CN1CCOCC1)[C@H](O)c1ccccc1` (relative stereo) [compound 12], in data set [1] (setting [6]), the “Body Weight Increase at the 10-day point” value is reported as -0.1 g, the “50-day cure (mice)” value was 2 and the “Solid Tumors at 50 days (mice)” value stood at 2.

In the case of glucosylceramide [GlcCer], in the data set on Ehrlich ascites cells [3], the “Increase in the number of cancer cells” value is “greater than 50%”. For the same compound, in the data set with Ehrlich ascites cells [2] (EATC mice, eight daily injections from day 1, killed 1 day after the last, GlcCer 100 mg/kg, saline controls 3.07 ml), the “Packed, centrifuged ascites cells (mean value per mouse)” value worked out at 4.68 mL. The “Increase of packed cells over saline-injected controls” value in the data set on Ehrlich ascites cells [2] (EATC mice, eight daily injections, GlcCer 100 mg/kg, p less than 0.05) is 52%. In the data set with Ehrlich ascites cells [2], the “Volume of packed cells” value came out at 4.13 ± 0.63 ml/mouse and the “Volume of packed cells, % of controls” value is on record as 152 % of controls.

In the case of `CCCCCCCCCCCCCCCCCC(=O)N[C@H](CN1CCOCC1)[C@H](O)c1ccccc1` (relative stereo) [compound 18], in data set [1], the “Acute, initial toxicity observation” value is listed as “high initial weight loss”. Also, the “Acute, initial toxicity observation” value in data set [1] (listed as C18 homolog) is “absence of an acute, initial toxicity reaction”. Also, in data set [1] (setting [7]), the “Body Weight Increase at the 10-day point” value is 2.5 g, the “50-day cure (mice)” value was determined as 6 and the “Solid Tumors at 50 days (mice)” value worked out at 0.

As for `CCCCCCCCCC(=O)N[C@H](CN1CCOCC1)[C@H](O)c1ccccc1` (relative stereo) [compound 10, 1-Phenyl-2-Decanoylamino-3-Morpholino-1-Propanol], in data set [1] (setting [6]), the “50-day cure (mice)” value is listed as 5 and the “Solid Tumors at 50 days (mice)” value was 1. Also, the “Mice that developed small solid tumors that were later resorbed” value in data set [1] (decanoyl group, 0.3 mmol/kg in Myrj emulsion) is listed as “two”. The compound also returned a Long-term cure rate in data set [1] (dosage of 128 mg/kg, Myrj emulsion) of 50%.

With `CCCCCCCCCCCCCC(=O)N[C@H](CN1CCOCC1)[C@H](O)c1ccccc1` (relative stereo) [compound 14], in data set [1] (setting [6]), the “Body Weight Increase at the 10-day point” value amounted to 0.1 g, the “50-day cure (mice)” value is reported as 1 and the “Solid Tumors at 50 days (mice)” value is 4.

`CCCCCCCCCC(=O)N[C@@H](CN1CCOCC1)[C@@H](O)c1ccccc1` [L-threo-PDMP, 1-Phenyl-2-Decanoylamino-3-Morpholino-1-Propanol]: in data set [1] (60-day observation period, 75-150 mg/kg), the “Effectiveness in curing the tumors compared with the D-enantiomer” value is recorded as “more effective in curing the tumors than the D-enantiomer”. In addition, in data set [1] (75-150 mg/kg), the “Losses of animals during the initial 10 days of treatment” value is “no losses of animals”. Besides, the “Ascites fluid in treated mice” value in data set [1] (75-150 mg/kg, 10 days) is “At no time was ascites fluid visible”. The “Normal at 60 days” value was 4 # of mice in data set [1] (75 mg/kg, 10 days); 4 # of mice in data set [1] (100 mg/kg, 10 days); 2 # of mice in data set [1] (125 mg/kg, 10 days); 5 # of mice in data set [1] (150 mg/kg, 10 days). For the same compound, the “Solid tumors at 60 days” value is listed as 2 # of mice in data set [1] (75 mg/kg, 10 days); 3 # of mice in data set [1] (100 mg/kg, 10 days); 3 # of mice in data set [1] (125 mg/kg, 10 days); 3 # of mice in data set [1] (150 mg/kg, 10 days). Also, the “Mice in which disappearance of solid tumors was observed” value in data set [1] (at the higher dosages) is “two”. Moreover, in data set [1] (compared with the D-isomer), the “Acute toxicity reactions of the mice” value is listed as “distinctly smaller than with the D-isomer”. Moreover, the “Weight Change after 10 days” value in data set [1] (75 mg/kg) was 3.2 g; in data set [1] (100 mg/kg), 1.9 g; in data set [1] (125 mg/kg), 0.8 g; in data set [1] (150 mg/kg), -0.2 g. The “Inhibition of ceramide glucosyltransferase” value in data set [4] (general statement) is recorded as “ineffective”. For the same compound, in data set [4] (microsomes from EATC), the “Inhibition of the EATC enzyme” value is reported as “did not inhibit”.
